Literature values as cited in patent publication US7429679B2, “Sulphonic acid salt of sibutramine” (CJ Corporation, priority 2005, dated 2008).

System: mouse
Settings: intravenous; cited from earlier work

O=S(=O)(O)CCS(=O)(=O)O [ethane disulfonic acid]
LDL0: 68 mg/kg

CCS(=O)(=O)O [ethanesulfonic acid]
LDL0: 48 mg/kg
